Patent EP0533790B1, “NEW SALT FORM OF 5-DIFLUOROMETHOXY-2- [3,4-DIMETHOXY-2-PYRIDYL)METHYLSULFINYL-1H-BENZIMIDAZOLE” (BYK GULDEN LOMBERG CHEMISCHE FABRIK GMBH, priority 1990, dated 1991)

Columns and labels:
Assay type in all cases: physicochemical
[1] = Hygroscopicity / water uptake on storage
Method: So nimmt es bei Temperaturen von 20 bzw. 30°C und einer relativen Luftfeuchtigkeit von 80 % bei der Lagerung kein Wasser auf (keine Umwandlung in das 1,5-Hydrat!).

Solubility in acetone = details: solvent acetone (for the 1,5-Hydrat also other lower ketones)
[2] = Limiting solubility in phosphate buffer, measured in the presence of undissolved solid; details: 22°C; for Grenzlöslichkeit: pH 7,4, in the presence of undissolved solid

SMILES: COc1ccnc(C[S+]([O-])c2nc3ccc(OC(F)F)cc3[nH]2)c1OC (stereo not shown) [Monohydrat, 5-Difluormethoxy-2-[(3,4-dimethoxy-2-pyridyl)methylsulfinyl]-1H-benzimidazol-Natriumsalz-monohydrat]
- Hygroskopizität [1]: nicht hygroskopisch
- Wasseraufnahme bei der Lagerung ([1]; 20 or 30°C, relative humidity 80 %, storage): kein Wasser
- Löslichkeit in Aceton (Solubility in acetone): schwer löslich
- Grenzlöslichkeit [2]: 0.0013 mol/L
- Grenzlöslichkeit relative to the 1,5-Hydrat ([2]; pH 7,4, ratio versus the 1,5-Hydrat): etwa doppelt so große

SMILES: COc1ccnc(C[S+]([O-])c2nc3ccc(OC(F)F)cc3[nH]2)c1OC (stereo not shown) [1,5-Hydrat, 5-Difluormethoxy-2-[(3,4-dimethoxy-2-pyridyl)methylsulfinyl]-1H-benzimidazol-Natriumsalz-1,5-hydrat, reference compound]
- Löslichkeit in Aceton (Solubility in acetone): leichtlöslich
- Grenzlöslichkeit [2]: 6,2 x 10^-4 mol/l
